From patent US6596703B1, “Promotion of wound healing utilizing steroids having reduced deteriorous systemic side effects typical of glucocorticoids, mineralocorticoids and sex steroids” (Jagotec AG, priority 1997, dated 2003)
“Also recorded” adds a separate entry of the source. Read-outs that look alike come from different tables or passages of the source.

Key:
[1] = test system: murine chronic granulomatous air pouch; assay: Inflammation-induced angiogenesis in the murine chronic granulomatous air pouch, s.c. dosing from induction (day 0) to day 6; assay type: in vivo, mice; details: for Vascular Index: mean ± s.e.m.; for angiostatic action: administered alone s.c. 1 mg/kg, no heparin, prophylactic dosing (Tables 1, 2)
Method: (§1) Chronic granulomatous air pouches were raised in mice by known methods (the reader is referred to PCT/CA94/00207 at page 16 for an experimental method in this regard) utilizing 0.5 ml Freund's Complete adjuvant with 0.1% croton oil injected into 1 day old air pouches. Animals were dosed with saline/0.01% DMSO either subcutaneously (s.c.) into the nape of the neck, or with saline applied topically in 0.1 ml 2.5% hyaluronan. Vascular casts incorporating carmine in gelatin were formed at termination, the tissues weighed dry (mg), papain digested, and the carmine content (μg) determined by spectrophotometric assay. Vascularity was calculated as the Vascularity Index (μg/mg). Results are expressed as means±s.e.m.
Investigation of the action of tetrahydrocortisol, tetrahydrocortisone and tetrahydrocortexolone and the like on inflammation-induced angiogenesis in the murine chronic granulomatous air pouch was pursued. Groups of mice (n=8-13) were dosed with tetrahydrocortisol, tetrahydrocortisone or tetrahydrocortexolone or the like (0.1-3.0 mg/kg in 0.1 ml saline/0.01% DMSO, s.c) daily from induction (day 0) to termination on day 6. Controls were dosed with 0.1 ml saline/0.01% DMSO subcutaneously.
Investigation of the action of angiostatic and anti-inflammatory steroids on inflammation-induced angiogenesis in the murine chronic granulomatous air pouch was pursued. Groups of mice (n=8-13) were treated with the steroids at 1.0 mg/kg (0.1 ml saline/0.01% DMSO, s.c), except of dexamethasone at (0.2 mg/kg), daily from the day of induction (day 0) to termination on day 6. Controls were given 0.1 ml saline/0.01% DMSO s.c. (Key: Tetrahydrocortisol (TH-F), Tetrahydrocortisone (TH-E).

[2] = test system: established 7-day old vasculature of the murine chronic granulomatous air pouch; assay: Established 7-day old vasculature of the murine chronic granulomatous air pouch, s.c. dosing from day 7 to day 14 or 21; assay type: in vivo, mice; details: for Vascular Index: Table 3
Method: as §1
Investigation of the action of tetrahydrocortisol, tetrahydrocortisone and tetrahydrocortexolone and the like on the established 7-day old vasculature of the murine chronic granulomatous air pouch was pursued. Groups of mice were dosed with tetrahydrocortisol, tetrahydrocortisone or tetrahydrocortexolone or the like (0.1-3.0 mg/kg in 0.1 ml saline/0.01% DMSO, s.c) daily from day 7 to termination at day 14 or day 21. Controls were dosed with 0.1 ml saline (0.01% DMSO alone).

[3] = test system: murine chronic granulomatous air pouch; assay: Inflammatory-induced angiogenesis in the murine chronic granulomatous air pouch, topical application in 2.5% hyaluronan; assay type: in vivo, mice; details: for effect on angiogenesis: topical application (1 mg/kg) in 2.5% hyaluronan; for Vascular Index: 0.1 ml 2.5% hyaluronan alone topically daily day 0 to day 6
Method: as §1
(§2) Investigation of the action of topical tetrahydrocortisol, tetrahydrocortisone, tetrahydrocortexolone and the like on inflammatory-induced angiogenesis in the murine chronic granulomatous air pouch was pursued. Groups of mice (n=8-13) were depilated and the inflammation induced 4 days later. Tetrahydrocortisol (TH-F) and tetrahydrocortisone (TH-E) were applied topically (1 mg/kg) in 2.5% hyaluronan (0.1 ml) daily from the day of induction (day 0) to termination (day 6). Controls were dosed with 0.1 ml 2.5% hyaluronan alone.
as §2, with “tetrahydrocortisone and” for “tetrahydrocortisone,”, “was” for “and tetrahydrocortisone (TH-E) were”, “with” for “(1 mg/kg) in”, “ml of composition 0.1-1.0 mg of tetrahydrocortisol/kg) by weight” for “ml)”

[4] = test system: murine chronic granulomatous air pouch; details: s.c. at 1 mg/kg; reference (1); cited from earlier work
[5] = Table 2, 1.0 mg/kg s.c. daily day 0 to day 6
[6] = Table 1, 1 mg/kg s.c. daily day 0 to day 6

C[C@]12CCC(O)C[C@H]1CC[C@@H]1[C@@H]2C(=O)C[C@@]2(C)[C@H]1CC[C@]2(O)C(=O)CO (some centres unmarked) [TH-E, 5-pregnane-3,17,21-triol-11,20-dione]
Vascular Index [1, 5]: 18.860 ± 1.830 µg/mg | angiostatic action [1]: without effect | Vascular Index ([2]; 0.1 mg/kg s.c. daily from day 7, termination Day 14): 18.18 ± 1.97 µg/mg | Vascular Index ([2]; 0.1 mg/kg s.c. daily from day 7, termination Day 21): 18.59 ± 1.84 µg/mg | Vascular Index ([2]; 0.3 mg/kg s.c. daily from day 7, termination Day 14): 20.38 ± 1.91 µg/mg | Vascular Index ([2]; 0.3 mg/kg s.c. daily from day 7, termination Day 21): 31.33 ± 2.91 µg/mg | Vascular Index ([2]; 1.0 mg/kg s.c. daily from day 7, termination Day 14): 22.49 ± 3.77 µg/mg | Vascular Index ([2]; 1.0 mg/kg s.c. daily from day 7, termination Day 21): 25.75 ± 2.40 µg/mg | Vascular Index ([2]; 3.0 mg/kg s.c. daily from day 7, termination Day 14): 18.87 ± 1.29 µg/mg | Vascular Index ([2]; 3.0 mg/kg s.c. daily from day 7, termination Day 21): 25.91 ± 1.85 µg/mg | angiostatic action ([2]; s.c., no heparin, therapeutic dosing (Table 3)): without effect | effect on angiogenesis ([3]; listed as tetrahydrocortisone): significant acceleration of angiogenesis; also recorded: Definite angiogenesis action | effect on angiogenesis [4]: capable of inhibiting angiogenesis

hyaluronan [HA]
Vascular Index ([3]; Table 4): 11.180 ± 1.980 µg/mg | Vascular Index ([3]; Table 5): 11.180 ± 1.98 µg/mg

heparin
Vascular Index ([1]; Table 1, 1000 U p.o.): 7.93 ± 0.83 µg/mg

C[C@]12CC[C@@H](O)C[C@H]1CC[C@@H]1[C@@H]2CC[C@@]2(C)[C@H]1CC[C@]2(O)C(=O)CO [TH-S, tetrahydrocortexolone]
effect on angiogenesis [4]: capable of inhibiting angiogenesis

C[C@]12CCC(=O)C=C1CC[C@@H]1[C@@H]2C(=O)C[C@@]2(C)[C@H]1CC[C@]2(O)C(=O)CO [Cortisone, cortisone]
Vascular Index [1, 6]: 8.23 ± 0.62 µg/mg | angiostatic action [1]: inactive | effect on angiogenesis [3]: angiostatic

C[C@]12CCC(O)CC1CC[C@@H]1[C@@H]2C(O)C[C@@]2(C)[C@H]1CC[C@]2(O)C(=O)CO (some centres unmarked) [TH-F, 5-pregnane-3,11,17,21-tetrol-20-one]
Vascular Index [1, 6]: 5.29 ± 0.61 µg/mg | Vascular Index [1, 5]: 13.088 ± 1.630 µg/mg | angiostatic action [1]: decrease in vascularity | effect on angiogenesis ([3]; listed as tetrahydrocortisol): significant acceleration of angiogenesis; also recorded: Definite angiogenesis action | dose relation of acceleration of angiogenesis ([3]; topical in 2.5% hyaluronan, 0.1-1.0 mg/kg (Table 5)): dose related | effect on angiogenesis [4]: capable of inhibiting angiogenesis
